Assay results reported in PubChem BioAssay AID328 (DTP/NCI, 2004).
Values joined by “and” are separate entries in the source; they are usually repeats but may differ in a detail not shown here. Equal values may be shown once. Toxic doses and inconclusive results are not listed.

Tested on: BDF1 mice, P388 leukemia ip, median survival T/C
Experiment: NCI In Vivo Anticancer Drug Screen. Data for tumor model P388 Leukemia (intraperitoneal) in B6D2F1 (BDF1) mice
Conditions: endpoint: median survival time, higher = longer survival
How it was run: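 Transplantable tumour in mice; compound vs vehicle dosing; survival scored; ratio of treated to control reported.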

[1] = dose: 0.8 micrograms/kg/injection, schedule: Q01DX009 (ip), vehicle: saline + alcohol
[2] = dose: 1.5 micrograms/kg/injection, schedule: Q01DX009 (ip), vehicle: saline + alcohol
[3] = dose: 3.1 micrograms/kg/injection, schedule: Q01DX009 (ip), vehicle: saline + alcohol
[4] = dose: 6.2 micrograms/kg/injection, schedule: Q01DX009 (ip), vehicle: saline + alcohol
[5] = dose: 12.5 micrograms/kg/injection, schedule: Q01DX009 (ip), vehicle: saline + alcohol
[6] = dose: 25.0 micrograms/kg/injection, schedule: Q01DX009 (ip), vehicle: saline + alcohol
[7] = dose: 50.0 micrograms/kg/injection, schedule: Q01DX009 (ip), vehicle: saline + alcohol
[8] = dose: 25.0 mg/kg/injection, schedule: Q01DX009 (ip), vehicle: saline
[9] = dose: 50.0 mg/kg/injection, schedule: Q01DX009 (ip), vehicle: saline
[10] = dose: 50.0 mg/kg/injection, schedule: Q04DX003 (ip), vehicle: saline
[11] = dose: 100.0 mg/kg/injection, schedule: Q04DX003 (ip), vehicle: saline
[12] = dose: 100.0 mg/kg/injection, schedule: Q01DX009 (ip), vehicle: saline with Tween-80
[13] = dose: 200.0 mg/kg/injection, schedule: Q01DX009 (ip), vehicle: saline with Tween-80
[14] = dose: 25.0 mg/kg/injection, schedule: Q01DX009 (ip), vehicle: saline with Tween-80
[15] = dose: 50.0 mg/kg/injection, schedule: Q01DX009 (ip), vehicle: saline with Tween-80
[16] = dose: 100.0 mg/kg/injection, schedule: Q04DX003 (ip), vehicle: Klucel (hydroxypropylcellulose) (HPC)
[17] = dose: 200.0 mg/kg/injection, schedule: Q04DX003 (ip), vehicle: Klucel (hydroxypropylcellulose) (HPC)
[18] = dose: 400.0 mg/kg/injection, schedule: Q04DX003 (ip), vehicle: Klucel (hydroxypropylcellulose) (HPC)
[19] = dose: 100.0 mg/kg/injection, schedule: Q04DX003 (ip), vehicle: saline with Tween-80
[20] = dose: 200.0 mg/kg/injection, schedule: Q04DX003 (ip), vehicle: saline with Tween-80
[21] = dose: 400.0 mg/kg/injection, schedule: Q04DX003 (ip), vehicle: saline with Tween-80
[22] = dose: 50.0 mg/kg/injection, schedule: Q04DX003 (ip), vehicle: saline with Tween-80

C/C=C/C(=O)OC1CC(=O)N(C)c2cc(cc(OC)c2Cl)C/C(C)=C/C=CC(OC)C2(O)CC(OC(=O)N2)C(C)C2OC12C (configuration not stated)
T/C [1]: 150 % of control | T/C [2]: 150 % of control | T/C [3]: 150 % of control | T/C [4]: 160 % of control | T/C [5]: 170 % of control | T/C [6]: 173 % of control | T/C [7]: 210 % of control | T/C (dose: 100.0 micrograms/kg/injection, schedule: Q01DX009 (ip), vehicle: saline + alcohol): 210 % of control | T/C (dose: 200.0 micrograms/kg/injection, schedule: Q01DX009 (ip), vehicle: saline + alcohol): 210 % of control

CC1CN1P(=O)(N1CC1C)N1CC1C (configuration not stated)
T/C [8]: 100 % of control | T/C (dose: 33.0 mg/kg/injection, schedule: Q04DX003 (ip), vehicle: saline): 222 % of control | T/C [9]: 105 % of control | T/C [10]: 177 % of control and 186 % of control | T/C (dose: 75.0 mg/kg/injection, schedule: Q04DX003 (ip), vehicle: saline): 250 % of control and 116 % of control | T/C [11]: 236 % of control

Oc1c(CN2CCOCC2)cc(CN2CCOCC2)cc1CN1CCOCC1
T/C [12]: 91 % of control | T/C [13]: 86 % of control | T/C (dose: 400.0 mg/kg/injection, schedule: Q01DX009 (ip), vehicle: saline with Tween-80): 100 % of control

OC1(C2CCCCC2)C2CCCC1CCC2 (configuration not stated)
T/C (dose: 12.5 mg/kg/injection, schedule: Q01DX009 (ip), vehicle: saline with Tween-80): 104 % of control | T/C [14]: 95 % of control | T/C [15]: 109 % of control | T/C (dose: 100.0 mg/kg/injection, schedule: Q04DX003 (ip), vehicle: other): 104 % of control | T/C (dose: 200.0 mg/kg/injection, schedule: Q04DX003 (ip), vehicle: other): 109 % of control | T/C (dose: 400.0 mg/kg/injection, schedule: Q04DX003 (ip), vehicle: other): 104 % of control

O=[N+]([O-])c1ccc2c3c(cccc13)-c1ccccc1-2
T/C (dose: 100.0 mg/kg/injection, schedule: Q01DX009 (ip), vehicle: Klucel (hydroxypropylcellulose) (HPC)): 110 % of control | T/C [16]: 90 % of control | T/C (dose: 200.0 mg/kg/injection, schedule: Q01DX009 (ip), vehicle: Klucel (hydroxypropylcellulose) (HPC)): 105 % of control | T/C [17]: 95 % of control | T/C (dose: 400.0 mg/kg/injection, schedule: Q01DX009 (ip), vehicle: Klucel (hydroxypropylcellulose) (HPC)): 100 % of control | T/C [18]: 100 % of control

O=NNc1ccccn1
T/C (dose: 3.12 mg/kg/injection, schedule: Q01DX009 (ip), vehicle: saline): 105 % of control | T/C (dose: 12.5 mg/kg/injection, schedule: Q01DX009 (ip), vehicle: saline): 214 % of control | T/C [8]: 112 % of control

O=[N+]([O-])c1ccc2nc3c(nc2c1)-c1cccc2cccc-3c12
T/C [19]: 91 % of control | T/C [20]: 100 % of control | T/C [21]: 91 % of control

OCc1cc2ccccc2cc1O
T/C [16]: 90 % of control | T/C [17]: 109 % of control | T/C [18]: 104 % of control

O=C1NC(c2cccs2)(c2cccs2)C(=O)N1Cl
T/C (dose: 6.25 mg/kg/injection, schedule: Q01DX009 (ip), vehicle: water): 94 % of control | T/C (dose: 6.25 mg/kg/injection, schedule: Q04DX003 (ip), vehicle: water): 97 % of control | T/C (dose: 12.5 mg/kg/injection, schedule: Q01DX009 (ip), vehicle: water): 104 % of control | T/C (dose: 12.5 mg/kg/injection, schedule: Q04DX003 (ip), vehicle: water): 97 % of control | T/C (dose: 25.0 mg/kg/injection, schedule: Q01DX009 (ip), vehicle: water): 103 % of control | T/C (dose: 25.0 mg/kg/injection, schedule: Q04DX003 (ip), vehicle: water): 97 % of control | T/C (dose: 50.0 mg/kg/injection, schedule: Q01DX009 (ip), vehicle: water): 116 % of control | T/C (dose: 50.0 mg/kg/injection, schedule: Q04DX003 (ip), vehicle: water): 95 % of control | T/C (dose: 100.0 mg/kg/injection, schedule: Q04DX003 (ip), vehicle: water): 95 % of control | T/C (dose: 200.0 mg/kg/injection, schedule: Q04DX003 (ip), vehicle: water): 88 % of control

Nc1ccccc1C(=O)N/N=C\c1ccc(O)cc1
T/C [12]: 110 % of control | T/C [13]: 94 % of control

O=C(CC(O)(C(F)(F)F)C(F)(F)F)c1ccco1
T/C (dose: 17.0 mg/kg/injection, schedule: Q01DX009 (ip), vehicle: saline): 100 % of control | T/C [14]: 123 % of control | T/C (dose: 33.0 mg/kg/injection, schedule: Q01DX009 (ip), vehicle: saline): 100 % of control | T/C [9]: 100 % of control | T/C [22]: 120 % of control | T/C (dose: 75.0 mg/kg/injection, schedule: Q01DX009 (ip), vehicle: saline): 100 % of control | T/C [12]: 123 % of control | T/C [19]: 120 % of control

OC(CC1CCCCN1)c1cc(C(F)(F)F)nc2c(C(F)(F)F)cccc12 (configuration not stated)
T/C [15]: 111 % of control

O=C(O)O.[Ce]
T/C [15]: 107 % of control | T/C [12]: 107 % of control

COc1cc2c(c(OC)c1OC)CC1c3c(cc4c(c3-2)OCO4)CCN1C (configuration not stated)
T/C (dose: 37.5 mg/kg/injection, schedule: Q01DX009 (ip), vehicle: Klucel (hydroxypropylcellulose) (HPC)): 98 % of control | T/C (dose: 75.0 mg/kg/injection, schedule: Q01DX009 (ip), vehicle: Klucel (hydroxypropylcellulose) (HPC)): 102 % of control | T/C (dose: 150.0 mg/kg/injection, schedule: Q01DX009 (ip), vehicle: Klucel (hydroxypropylcellulose) (HPC)): 124 % of control

CN(C)CCCNC(=O)Nc1ccccc1
T/C [16]: 95 % of control | T/C [17]: 104 % of control

CCC(=O)O[C@H]1CC(=O)N(C)c2cc(cc(OC)c2Cl)C/C(C)=C/C=C[C@@H](OC)[C@@]2(O)C[C@H](OC(=O)N2)[C@@H](C)[C@H]2O[C@@]12C
T/C [1]: 170 % of control | T/C (dose: 0.9 micrograms/kg/injection, schedule: Q01DX009 (ip), vehicle: saline + alcohol): 110 % of control | T/C [2]: 173 % of control | T/C [3]: 168 % of control | T/C [4]: 170 % of control | T/C [5]: 163 % of control and 183 % of control | T/C [6]: 258 % of control and 153 % of control | T/C [7]: 198 % of control and 223 % of control

O=C(Nc1ccc(Cl)c(C(F)(F)F)c1)Nc1ccc(Oc2ccc(Cl)cc2)cc1S(=O)(=O)O
T/C [10]: 100 % of control | T/C [11]: 95 % of control | T/C (dose: 200.0 mg/kg/injection, schedule: Q04DX003 (ip), vehicle: saline): 95 % of control

CC(=O)Nc1cc(C)ccc1O
T/C [19]: 100 % of control | T/C [20]: 104 % of control | T/C [21]: 90 % of control

COC1=CC(=O)C=C(OC)C1=O
T/C (dose: 2.0 mg/kg/injection, schedule: Q01DX010 (ip), vehicle: saline): 105 % of control | T/C (dose: 4.0 mg/kg/injection, schedule: Q01DX010 (ip), vehicle: saline): 100 % of control | T/C (dose: 8.0 mg/kg/injection, schedule: Q01DX010 (ip), vehicle: saline): 105 % of control

CCCCCCCCCCC[CH2][Hg][CH2]CCCCCCCCCCC
T/C [16]: 91 % of control | T/C [17]: 100 % of control

C=CCN(CC=C)P(=O)(N1CC1C)N1CC1C (configuration not stated)
T/C (dose: 0.2 mg/kg/injection, schedule: Q01DX009 (ip), vehicle: saline): 101 % of control | T/C (dose: 0.4 mg/kg/injection, schedule: Q01DX009 (ip), vehicle: saline): 106 % of control

CCCCc1ccc(N2C(N)=NC(N)=NC2(C)C)cc1
T/C (dose: 6.25 mg/kg/injection, schedule: Q01DX005 (ip), vehicle: Klucel (hydroxypropylcellulose) (HPC)): 111 % of control | T/C (dose: 12.5 mg/kg/injection, schedule: Q01DX005 (ip), vehicle: Klucel (hydroxypropylcellulose) (HPC)): 110 % of control

CCCCN1CCCC(O)C1 (configuration not stated)
T/C [9]: 100 % of control | T/C [22]: 105 % of control | T/C (dose: 100.0 mg/kg/injection, schedule: Q01DX009 (ip), vehicle: saline): 100 % of control | T/C [19]: 110 % of control | T/C [20]: 100 % of control

COC(=O)c1cc(O)c(O)c(OC)c1
T/C [14]: 111 % of control | T/C [15]: 101 % of control | T/C [12]: 86 % of control | T/C [13]: 95 % of control

O=[N+]([O-])c1cccc(OCCOc2ccccc2)c1
T/C [19]: 100 % of control | T/C [20]: 115 % of control | T/C [21]: 105 % of control
